Results from patent US10858366B2 (priority 2016, dated 2020).

What follows are molecules tested against RNP_CAL (PB2, PB1, PA, NP, influenza A Luciferase reporter in 293T cells) (Influenza A virus (strain swl A/California/04/2009 H1N1), UniProt C3W5S0) (assay: cell-based).
Work on `CCc1cnc2n1C[C@H](C(c1ccccc1)c1ccccc1)n1ccc(=O)c(O)c1-2` [Example 9, (S)-6-benzhydryl-3-ethyl-11-hydroxy-5H-imidazo[1,2-a]pyrido[2,1-c]pyrazin-10(6H)-one] yielded an EC50 of 580 nM. In the case of `O=c1cnn2c(c1O)-c1nccn1CC2C(c1ccc(Cl)cc1)c1ccc(Cl)cc1` (centres unmarked) [Example 10, 6-(bis(4-chlorophenyl)methyl)-11-hydroxy-5H-imidazo[2′,1′:3,4]pyrazino[1,2-b]pyridazin-10(6H)-one], the EC50 is reported as 320 nM. `O=c1cnn2c(c1O)-c1nccn1CC2C(c1cccc(Cl)c1)c1cccc(Cl)c1` (centres unmarked) [Example 11, 6-(bis(3-chlorophenyl)methyl)-11-hydroxy-5H-imidazo[2′,1′:3,4]pyrazino[1,2-b]pyridazin-10(6H)-one] was tested, and the EC50 was 80 nM. In the case of `O=c1cnn2c(c1O)-c1nccn1CC2C(c1ccc(F)cc1)c1ccc(F)cc1` (centres unmarked) [Example 12, 6-(bis(4-fluorophenyl)methyl)-11-hydroxy-5H-imidazo[2′,1′:3,4]pyrazino[1,2-b]pyridazin-10(6H)-one], the EC50 is reported as 800 nM. With `Cc1cnc2n1C[C@H](C(c1ccccc1)c1ccccc1)n1ccc(=O)c(O)c1-2` [Example 13, (S)-6-benzhydryl-11-hydroxy-3-methyl-5H-imidazo[1,2-a]pyrido[2,1-c]pyrazin-10(6H)-one] the EC50 was 310 nM. `O=c1cnn2c(c1O)-c1nccn1C[C@@H]2C(c1cccc(Cl)c1)c1cccc(Cl)c1` [Example 15, (S)-6-(bis(3-chlorophenyl)methyl)-11-hydroxy-5H-imidazo [2′,1′:3,4] pyrazino [1,2-b]pyridazin-10(6H)-one] gave an EC50 of 25 nM. `O=c1cnn2c(c1O)-c1nccn1C[C@H]2C(c1cccc(Cl)c1)c1cccc(Cl)c1` [Example 16, (R)-6-(bis(3-chlorophenyl)methyl)-11-hydroxy-5H-imidazo[2′,1′:3,4] pyrazino [1,2-b]pyridazin-10(6H)-one] showed an EC50 of 820 nM. `O=c1cnn2c(c1O)-c1nccn1C[C@@H]2[C@@H](c1ccc(F)cc1)c1cccc(C(F)(F)F)c1` [Example 21, (S)-6-((S)-(4-fluorophenyl)(3-(trifluoromethyl)phenyl)methyl)-11-hydroxy-5,6-dihydro-10H-imidazo[2′,1′:3,4]pyrazino[1,2-b]pyridazin-10-one] gave an EC50 of 52 nM. `O=c1cnn2c(c1O)-c1nccn1C[C@@H]2C(c1ccc(F)cc1)c1ccc(F)cc1` [Example 22, (S)-6-(bis(4-fluorophenyl)methyl)-11-hydroxy-5,6-dihydro-10H-imidazo[2′,1′:3,4]pyrazino[1,2-b]pyridazin-10-one] gave an EC50 of 82 nM. `O=c1cnn2c(c1O)-c1nccn1C[C@@H]2[C@@H](c1ccc(F)cc1)c1ccc(F)c(F)c1` [Example 25, (S)-6-((S)-(3,4-difluorophenyl)(4-fluorophenyl)methyl)-11-hydroxy-5H-imidazo[2′,1′:3,4]pyrazino[1,2-b]pyridazin-10(6H)-one] gave an EC50 of 56 nM. Work on `O=c1cnn2c(c1O)-c1nccn1C[C@@H]2[C@H](c1ccc(F)cc1)c1cccc(F)c1` [Example 26, (S)-6-((R)-(3-fluorophenyl)(4-fluorophenyl)methyl)-11-hydroxy-5,6-dihydro-10H-imidazo[2′,1′:3,4]pyrazino[1,2-b]pyridazin-10-one] yielded an EC50 of 38 nM. With `Cc1cc(F)ccc1[C@H](c1ccc(F)cc1)[C@H]1Cn2ccnc2-c2c(O)c(=O)cnn21` [Example 27, (S)-6-((S)-(4-fluoro-2-methylphenyl)(4-fluorophenyl)methyl)-11-hydroxy-5,6-dihydro-10H-imidazo[2′,1′:3,4]pyrazino[1,2-b]pyridazin-10-one] the EC50 was 50 nM. `CSc1cccc([C@H](c2ccc(F)cc2)[C@H]2Cn3ccnc3-c3c(O)c(=O)cnn32)c1` [Example 28, (S)-6-((S)-(4-fluorophenyl)(3-(methylthio)phenyl)methyl)-11-hydroxy-5,6-dihydro-10H-imidazo[2′,1′:3,4]pyrazino[1,2-b]pyridazin-10-one] showed an EC50 of 81 nM. In the case of `O=c1cnn2c(c1O)-c1nccn1C[C@@H]2[C@@H](c1ccc(F)cc1)c1ccccc1Cl` [Example 29, (S)-6-((S)-(2-chlorophenyl)(4-fluorophenyl)methyl)-11-hydroxy-5,6-dihydro-10H-imidazo[2′,1′:3,4]pyrazino[1,2-b]pyridazin-10-one], the EC50 is reported as 72 nM. `O=c1cnn2c(c1O)-c1nccn1C[C@@H]2[C@@H](c1ccc(F)cc1)c1cccc(Cl)c1` [Example 31, (S)-6-((S)-(3-chlorophenyl)(4-fluorophenyl)methyl)-11-hydroxy-5,6-dihydro-10H-imidazo[2′,1′:3,4]pyrazino[1,2-b]pyridazin-10-one] showed an EC50 of 37 nM. In the case of `O=c1cnn2c(c1O)-c1nccn1C[C@@H]2[C@@H](c1ccc(F)cc1)c1ccc(C(F)(F)F)cc1` [Example 32, (S)-6-((R)-(4-fluorophenyl)(4-(trifluoromethyl)phenyl)methyl)-11-hydroxy-5,6-dihydro-10H-imidazo[2′,1′:3,4]pyrazino[1,2-b]pyridazin-10-one], the EC50 is reported as 250 nM. `O=c1cnn2c(c1O)-c1nccn1C[C@@H]2[C@@H](c1ccc(F)cc1)c1cc(F)cc(F)c1` [Example 34, (S)-6-((S)-(3,5-difluorophenyl)(4-fluorophenyl)methyl)-11-hydroxy-5H-imidazo[2′,1′:3,4]pyrazino[1,2-b]pyridazin-10(6H)-one] showed an EC50 of 25 nM. `Cc1ccccc1[C@H](c1ccc(F)cc1Br)[C@H]1Cn2ccnc2-c2c(O)c(=O)cnn21` [Example 35, (S)-6-((R)-(2-bromo-4-fluorophenyl)(o-tolyl)methyl)-11-hydroxy-5,6-dihydro-10H-imidazo[2′,1′:3,4]pyrazino[1,2-b]pyridazin-10-one] gave an EC50 of 50 nM. `O=c1cnn2c(c1O)-c1nccn1C[C@@H]2[C@H](c1cccc(F)c1)c1ccc(F)cc1Br` [Example 36, (S)-6-((R)-(2-bromo-4-fluorophenyl)(3-fluorophenyl)methyl)-11-hydroxy-5,6-dihydro-10H-imidazo[2′,1′:3,4]pyrazino[1,2-b]pyridazin-10-one] gave an EC50 of 27 nM. Molecule `CS(=O)(=O)c1cccc([C@H](c2ccc(F)cc2)[C@H]2Cn3ccnc3-c3c(O)c(=O)cnn32)c1` [Example 42, (S)-6-((S)-(4-fluorophenyl)(3-(methylsulfonyl)phenyl)methyl)-11-hydroxy-5,6-dihydro-10H-imidazo[2′,1′:3,4]pyrazino[1,2-b]pyridazin-10-one] has an EC50 of 2800 nM. `N#Cc1ccccc1[C@H](c1ccc(F)cc1)[C@H]1Cn2ccnc2-c2c(O)c(=O)cnn21` [Example 44, 2-((S)-(4-fluorophenyl)((S)-11-hydroxy-10-oxo-5,6-dihydro-10H-imidazo[2′,1′:3,4]pyrazino[1,2-b]pyridazin-6-yl)methyl)benzonitrile] gave an EC50 of 300 nM. With `N#Cc1ccc([C@H](c2ccc(F)cc2)[C@H]2Cn3ccnc3-c3c(O)c(=O)cnn32)cc1` [Example 45, 4-((R)-(4-fluorophenyl)((S)-11-hydroxy-10-oxo-5,6-dihydro-10H-imidazo[2′,1′:3,4]pyrazino[1,2-b]pyridazin-6-yl)methyl)benzonitrile] the EC50 was 42 nM. For `O=c1cnn2c(c1O)-c1nc(Br)c(Br)n1C[C@@H]2C(c1ccc(F)cc1)c1ccc(F)cc1` [Example 48, (S)-6-(bis(4-fluorophenyl)methyl)-2,3-dibromo-11-hydroxy-5,6-dihydro-10H-imidazo[2′,1′:3,4]pyrazino[1,2-b]pyridazin-10-one], the EC50 was 4300 nM. In the case of `N#Cc1cnc2n1C[C@H](C(c1ccc(F)cc1)c1ccc(F)cc1)n1ncc(=O)c(O)c1-2` [Example 49, (S)-6-(bis(4-fluorophenyl)methyl)-11-hydroxy-10-oxo-5,6-dihydro-10H-imidazo[2′,1′:3,4]pyrazino[1,2-b]pyridazine-3-carbonitrile], the EC50 is reported as 820 nM. Molecule `O=c1cnn2c(c1O)-c1ncc(CO)n1C[C@@H]2C(c1ccc(F)cc1)c1ccc(F)cc1` [Example 50, (S)-6-(bis(4-fluorophenyl)methyl)-11-hydroxy-3-(hydroxymethyl)-5,6-dihydro-10H-imidazo[2′,1′:3,4]pyrazino[1,2-b]pyridazin-10-one] has an EC50 of 100 nM. Work on `Cc1ccccc1[C@H](c1ccc(F)cc1)[C@H]1Cn2c(CO)cnc2-c2c(O)c(=O)cnn21` [Example 51, (S)-6-((S)-(4-fluorophenyl)(o-tolyl)methyl)-11-hydroxy-3-(hydroxymethyl)-5,6-dihydro-10H-imidazo[2′,1′:3,4]pyrazino[1,2-b]pyridazin-10-one] yielded an EC50 of 90 nM. For `CC(O)c1cnc2n1C[C@H](C(c1ccccc1)c1ccccc1)n1ccc(=O)c(O)c1-2` (stereo partly drawn) [Example 55, (6S)-6-benzhydryl-11-hydroxy-3-(1-hydroxyethyl)-5H-imidazo[1,2-a]pyrido[2,1-c]pyrazin-10(6H)-one], the EC50 was 1700 nM. For `O=c1ccn2c(c1O)-c1ncc(CN3CCSCC3)n1C[C@@H]2C(c1ccccc1)c1ccccc1` [Example 62, (S)-6-benzhydryl-11-hydroxy-3-(thiomorpholinomethyl)-5,6-dihydro-10H-imidazo[1,2-a]pyrido[2,1-c]pyrazin-10-one], the EC50 was 640 nM. With `O=c1ccn2c(c1O)-c1ncc(CNC3CCOCC3)n1C[C@@H]2C(c1ccccc1)c1ccccc1` [Example 65, (S)-6-benzhydryl-11-hydroxy-3-(((tetrahydro-2H-pyran-4-yl)amino)methyl)-5,6-dihydro-10H-imidazo[1,2-a]pyrido[2,1-c]pyrazin-10-one] the EC50 was 3500 nM. `C[C@@H](NCc1cnc2n1C[C@H](C(c1ccccc1)c1ccccc1)n1ccc(=O)c(O)c1-2)C(F)(F)F` [Example 66, (S)-6-benzhydryl-11-hydroxy-3-((((R)-1,1,1-trifluoropropan-2-yl)amino)methyl)-5,6-dihydro-10H-imidazo[1,2-a]pyrido[2,1-c]pyrazin-10-one] showed an EC50 of 310 nM. In the case of `O=C(NC1CC1)c1cnc2n1C[C@H](C(c1ccccc1)c1ccccc1)n1ccc(=O)c(O)c1-2` [Example 70, (S)-6-benzhydryl-N-cyclopropyl-11-hydroxy-10-oxo-5,6-dihydro-10H-imidazo[1,2-a]pyrido[2,1-c]pyrazine-3-carboxamide], the EC50 is reported as 1700 nM. For `O=C(c1cnc2n1C[C@H](C(c1ccccc1)c1ccccc1)n1ccc(=O)c(O)c1-2)N1CCCC1` [Example 72, (S)-6-benzhydryl-11-hydroxy-3-(pyrrolidine-1-carbonyl)-5,6-dihydro-10H-imidazo[1,2-a]pyrido[2,1-c]pyrazin-10-one], the EC50 was 1700 nM.
